Experimental data: patent US9890166B2, “Imidazopyrrolidine derivatives and their use in the treatment of disease” (NOVARTIS AG, priority 2013, dated 2018)

Assays:
[1] = test system: THP-1 cells; test: Cell growth inhibition assay (CellTiter-Glo), THP-1; conditions: for GI50: Homo sapiens, THP-1, read-out: THP-1 GI50; for THP-1 TGI: THP-1 cells, total growth inhibition, CellTiter-Glo;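 as to all read-outs here: viability read as cellular ATP luminescence after 4 days, 3-fold dilution series from 10 µM, DMSO vehicle-treated cells taken as 100%, cell-free medium wells as −100%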
[2] = target: BRD4 (His-Brd4(44-477)) (Homo sapiens (Human), UniProt O60885); test: TR-FRET in-vitro binding assay for BRD4; conditions: single determination or n ≧ 2 independent determinations, read-out: Biochemical IC50 BRD4
Method in brief: (§1)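 His-tagged BRD2, BRD3 and BRD4 fragments tested by TR-FRET at 8 compound concentrations, with DMSO stocks at 10 mM. Read on EnVision after 35 min incubation at 30° C.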

[3] = target: CREBBP bromodomain (His-CREBBP(1081-1197)) (Homo sapiens (Human), UniProt Q92793); test: AlphaScreen in-vitro binding assay for CREBBP; conditions: single determination or n ≧ 2 independent determinations, read-out: Biochemical IC50 CREBBP
CREBBP bromodomain (His-CREBBP(1081-1197)), sequence (Q92793 1081-1197): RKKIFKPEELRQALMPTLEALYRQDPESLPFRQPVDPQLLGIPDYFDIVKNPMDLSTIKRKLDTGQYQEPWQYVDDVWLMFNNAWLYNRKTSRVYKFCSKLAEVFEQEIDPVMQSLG
Method in brief: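 Detection used nickel-chelate acceptor plus streptavidin donor AlphaScreen beads, 1 h room temperature. Percent inhibition fitted by non-linear regression to IC50.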

[4] = target: BRD3 (His-Brd3(20-477)) (Homo sapiens (Human), UniProt Q15059); test: TR-FRET in-vitro binding assay for BRD3; conditions: single determination or n ≧ 2 independent determinations, read-out: Biochemical IC50 BRD3
BRD3 (His-Brd3(20-477)), sequence (Q15059 20-477): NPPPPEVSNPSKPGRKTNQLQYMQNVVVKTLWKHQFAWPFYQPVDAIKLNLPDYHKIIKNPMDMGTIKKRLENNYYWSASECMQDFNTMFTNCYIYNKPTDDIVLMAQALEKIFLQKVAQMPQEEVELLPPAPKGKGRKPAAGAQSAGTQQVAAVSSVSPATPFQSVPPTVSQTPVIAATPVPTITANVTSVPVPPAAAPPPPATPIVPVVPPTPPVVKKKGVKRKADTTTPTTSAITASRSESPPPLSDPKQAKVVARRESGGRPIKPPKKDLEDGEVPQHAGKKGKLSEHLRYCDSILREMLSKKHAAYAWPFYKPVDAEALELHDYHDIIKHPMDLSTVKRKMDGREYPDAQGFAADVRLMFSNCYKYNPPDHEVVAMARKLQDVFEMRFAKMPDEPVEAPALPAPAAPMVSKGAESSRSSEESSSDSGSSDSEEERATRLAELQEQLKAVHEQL
Method in brief: as §1

[5] = test system: K-562 cells; test: Cell growth inhibition assay (CellTiter-Glo), K-562; conditions: for GI50: Homo sapiens, K562, read-out: K-562 GI50; for K-562 TGI: K-562 cells, total growth inhibition, CellTiter-Glo;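 as to all read-outs here: cellular ATP measured by luminescence after 4 days of exposure, 3-fold dilution series from 10 µM, DMSO vehicle-treated cells define 100%, cell-free medium wells −100%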
[6] = test system: MV-4-11 cells; test: Cell growth inhibition assay (CellTiter-Glo), MV-4-11; conditions: for GI50: Homo sapiens, MV4-11, read-out: MV-4-11 GI50; for MV-4-11 TGI: MV-4-11 cells, total growth inhibition, CellTiter-Glo;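 as to all read-outs here: cellular ATP luminescence after 4 days, 3-fold dilution series from 10 µM top dose, vehicle (0.1% DMSO) set to 100%, cell-free medium set to −100%, day 0 corrected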
[7] = target: BRD2 (His-Brd2(60-472)) (Homo sapiens (Human), UniProt P25440); test: TR-FRET in-vitro binding assay for BRD2; conditions: single determination or n ≧ 2 independent determinations, read-out: Biochemical IC50 BRD2
BRD2 (His-Brd2(60-472)), sequence (P25440 60-472): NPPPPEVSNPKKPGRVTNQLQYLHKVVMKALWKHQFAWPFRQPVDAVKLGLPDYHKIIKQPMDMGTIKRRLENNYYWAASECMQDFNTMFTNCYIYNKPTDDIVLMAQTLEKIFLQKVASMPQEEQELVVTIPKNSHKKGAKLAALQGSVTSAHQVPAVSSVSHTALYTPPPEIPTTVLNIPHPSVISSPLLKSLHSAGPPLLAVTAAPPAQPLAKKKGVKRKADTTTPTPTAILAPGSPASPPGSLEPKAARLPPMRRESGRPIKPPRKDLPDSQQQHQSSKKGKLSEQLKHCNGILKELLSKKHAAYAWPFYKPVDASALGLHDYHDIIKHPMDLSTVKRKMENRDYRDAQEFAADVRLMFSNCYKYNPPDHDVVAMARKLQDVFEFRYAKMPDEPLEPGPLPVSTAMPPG
Description: TR-FRET In-Vitro Binding Assays for BRD2, BRD3, and BRD4:
All assays were performed in 384 well microtiter plates. Each assay plate contained 8-point serial dilutions for 40 test compounds, plus 16 high- and 16 low controls. Liquid handling and incubation steps were done on an Innovadyne Nanodrop Express equipped with a robotic arm (Thermo CatX, Perkin Elmer/Caliper Twister II) and an incubator (Liconic STX40, Thermo Cytomat 2C450). The assay plates were prepared by addition of 50 nl per well of compound solution in 90% DMSO HummingBird nanodispenser (Zinsser Analytic). […] Reactions were incubated at 30° C. for 35 minutes. […] After 35 minutes incubation at 30° C., plates were measured in a Perkin Elmer EnVision multilabel reader.
Preparation of Compound Dilutions
Test compounds were dissolved in DMSO (10 mM) and transferred into 1.4 mL flat bottom or V-shaped Matrix tubes carrying a unique 2D matrix. The stock solutions were stored at […] if not used immediately. For the test procedure the vials were defrosted and identified by a scanner whereby a working sheet was generated that guided the subsequent working steps.
Compound dilutions were made in 96 well plates. This format enabled the assay of maximally 40 individual test compounds at 8 concentrations (single points) including 4 reference compounds, if desired (known BET inhibitors from the prior art, for this and other assays of the type disclosed herein). The dilution protocol included the production of “pre-dilution plates”, “master plates” and “assay plates”.
Pre-Dilution Plates: 96 polypropylene well plates were used as pre-dilution plates. A total of 4 pre-dilution plates were prepared including 10 test compounds each on the plate positions A1-A10, one standard compound at A11 and one DMSO control at A12. All dilution steps were done on a HamiltonSTAR robot.
These plates were used directly for the assay which was performed in a total volume of 13.55 μL.

Compound | GI50 [1] [nM] | THP-1 TGI [1] [nM] | IC50 [2] [nM] | IC50 [3] [nM] | IC50 [4] [nM] | GI50 [5] [nM] | K-562 TGI [5] [nM] | GI50 [6] [nM] | MV-4-11 TGI [6] [nM] | IC50 [7] [nM]
Cc1cc(N2C(=O)c3nc(C4=CCOC4)n(C(C)C)c3[C@H]2c2ccc(Cl)cc2)cn2c(C)nnc12 [Example 48, (R)-6-(4-chlorophenyl)-2-(2,5-dihydrofuran-3-yl)-5-(3,8-dimethyl-[1,2,4]triazolo[4,3-a]pyridin-6-yl)-1-isopropyl-5,6-dihydropyrrolo[3,4-d]imidazol-4(1H)-one] | 56.5 | 109 | 27 | 3050 | 33 | 351 | >10000 | 10.5 | 24.5 | 41
Cc1cc(N2C(=O)c3nc(C4=CCNCC4)n(C(C)C)c3C2c2ccc(Cl)cc2)cn2c(C)nnc12 (centres unmarked) [Example 49, 6-(4-Chlorophenyl)-5-(3,8-dimethyl-[1,2,4]triazolo[4,3-a]pyridin-6-yl)-1-isopropyl-2-(1,2,3,6-tetrahydropyridin-4-yl)-5,6-dihydropyrrolo[3,4-d]imidazol-4(1H)-one] | 989 | 1470 | 35 | 2200 | 42 | 2040 | >10000 | 191 | 320 | 56
Cc1cc(N2C(=O)c3nc(C4=CCN(C)CC4)n(C(C)C)c3C2c2ccc(Cl)cc2)cn2c(C)nnc12 (centres unmarked) [Example 50, 6-(4-Chlorophenyl)-5-(3,8-dimethyl-[1,2,4]triazolo[4,3-a]pyridin-6-yl)-1-isopropyl-2-(1-methyl-1,2,3,6-tetrahydropyridin-4-yl)-5,6-dihydropyrrolo[3,4-d]imidazol-4(1H)-one] | 233 | 495 | 27 | 5400 | 23.5 | 575 | >10000 | 28.8 | 57.1 | 41
Cc1cc(N2C(=O)c3nc(C4=CC(C)(C)NC(C)(C)C4)n(C(C)C)c3C2c2ccc(Cl)cc2)cn2c(C)nnc12 (centres unmarked) [Example 51, 6-(4-Chlorophenyl)-5-(3,8-dimethyl-[1,2,4]triazolo[4,3-a]pyridin-6-yl)-1-isopropyl-2-(2,2,6,6-tetramethyl-1,2,3,6-tetrahydropyridin-4-yl)-5,6-dihydropyrrolo[3,4-d]imidazol-4(1H)-one] | 212 | 612 | 19.5 | 6400 | 25 | 439 | >10000 | 22.4 | 47.9 | 40
Cc1cc(N2C(=O)c3nc(C)n(C(C)C)c3C2c2ccc(Cl)cc2)cn2c(C)nnc12 (centres unmarked) [Example 58, 6-(4-chlorophenyl)-5-(3,8-dimethyl-[1,2,4]triazolo[4,3-a]pyridin-6-yl)-1-isopropyl-2-methyl-5,6-dihydropyrrolo[3,4-d]imidazol-4(1H)-one] | 99.5 | 207.5 | 55 | 10400 | 38 | 366 | >10000 | 23.8 | 48.75 | 78
Cc1cc(N2C(=O)c3nc(C)n(C(C)C)c3[C@H]2c2ccc(Cl)cc2)cn2c(C)nnc12 [Example 59, (R)-6-(4-chlorophenyl)-5-(3,8-dimethyl-[1,2,4]triazolo[4,3-a]pyridin-6-yl)-1-isopropyl-2-methyl-5,6-dihydropyrrolo[3,4-d]imidazol-4(1H)-one] | 41 | 114 | 30 | 5700 | 34 | 117 | >10000 | 17.8 | 34.9 | 48
COc1cc(N2C(=O)c3nc(C4=CCOCC4)n(C(C)C)c3C2c2ccc(Cl)cc2)cc2c1nnn2C (centres unmarked) [Example 60] | 69 | 132 | 31.5 | 21900 | 53.5 | 280 | >10000 | 34 | 63.1 | 96
COc1cc(N2C(=O)c3nc(C4=CCOCC4)n(C(C)C)c3[C@H]2c2ccc(Cl)cc2)cc2c1nnn2C [Example 61] | 65.4 | 149 | 24.5 | 17900 | 51.5 | 116 | >10000 | 28.2 | 55.1 | 100
COc1cc(N2C(=O)c3nc(C4=CCCN(C)C4)n(C(C)C)c3C2c2ccc(Cl)cc2)cc2c1nnn2C (centres unmarked) [Example 62] | 164 | 331.5 | 120 | 31400 | 86 | 391 | >10000 | 41.9 | 80.25 | 150
COc1cc(N2C(=O)c3nc(C)n(C(C)C)c3C2c2ccc(Cl)cc2)cc2c1nnn2C (centres unmarked) [Example 63] | 192 | 369 | 72 | 21900 | 96.5 | 458 | >10000 | 88.2 | 141 | 240
COC(=O)N1CC=C(c2nc3c(n2C(C)C)C(c2ccc(Cl)cc2)N(c2cc(C)c4nnc(C)n4c2)C3=O)CC1 (centres unmarked) [Example 65, methyl 4-(6-(4-chlorophenyl)-5-(3,8-dimethyl-[1,2,4]triazolo[4,3-a]pyridin-6-yl)-1-isopropyl-4-oxo-1,4,5,6-tetrahydropyrrolo[3,4-d]imidazol-2-yl)-5,6-dihydropyridine-1(2H)-carboxylate] | 138 | 299.5 | 24 | 4000 | 27.5 | 298 | >10000 | 19.3 | 38.95 | 50
